Data taken from patent US20240156744A1, “METHOD OF APPLYING ELECTRICAL IMPULSES FOR THE PURPOSE OF LOADING VARIOUS MOLECULES INTO PLANT-DERIVED NANOVESICLES” (EXO LAB ITALIA, S.r.l., priority 2021, published 2024).

Tests used:
human melanoma cells = assay: Transfer of AO to tumour cells, spectrofluorimeter; type: cell-based; settings: AO 0.1 pg/mL; cells cultured in unbuffered medium
From the text: Acridine orange was not activated with blue light.

[1] = system: drug-resistant CEM/VBL100 cells; assay: Cytotoxicity by Trypan blue assay on CEM/VBL100 cells; type: cell-based; settings: CEM/VBL100, 24 h
Procedure: Increasing concentrations of VBL alone and loaded into the plant nanovesicles were used to assess the cytotoxic effect on CEM and CEM/VBL100 leukaemic cells by Trypan blue assay after 48 and 24 h of incubation, respectively. A) The cytotoxic effect on CEM cells starts to be evident at a concentration of 1000 ng/mL and is enhanced in VBL loaded in the plant nanovesicles (2.6-fold higher than in VBL alone).

Compound | percentage of AO transferred to tumour cells (human melanoma cells) | mortality at 0.0001 µg/mL [1] [%]
CN(C)c1ccc2cc3ccc(N(C)C)cc3nc2c1 [AO, Acridine Orange] | significantly reduced | –
CC[C@]1(O)C[C@@H]2CN(CCc3c([nH]c4ccccc34)[C@@](C(=O)OC)(c3cc4c(cc3OC)N(C)[C@H]3[C@@](O)(C(=O)OC)[C@H](OC(C)=O)[C@]5(CC)C=CCN6CC[C@]43[C@@H]65)C2)C1 [VBL, vinblastine] | – | 0.7
